Measured values: patent US10022328B2, “Dialkyl sulfosuccinate compositions, method of making, and method of use” (CYTEC INDUSTRIES INC., priority 2015, dated 2018)

Test: Contact angle of excipient solution in 0.1 M HCl with API pellet (sessile drop)
Assay type: physicochemical
Settings: 0.1% excipient in 0.1 M HCl, 10-μL drops on pressed API pellet
Source text: A factor which contributes to the bioavailability of active pharmaceutical ingredients (API's) is the wetting of the API by an aqueous solution at a physiological pH. Wetting can affect dissolution rates of the API in the aqueous solution. Wetting can be assessed by measuring the contact angle between an aqueous solution and an API. In these examples, the sessile drop method was used to determine contact angles. Pellets of API were produced using an X-press 3630 with a 35-mm pressing die. The API was pressed into a 35-mm diameter aluminum pan using the standard 30-ton cycle in order to produce a flat surface. Drops (10-μL) of a 0.1% test solution of an excipient were used. The test solution was 0.1 M HCl, to simulate physiological conditions in the human stomach.

| Contact Angle with Fenofibrate | Contact Angle with Glipizide | Contact Angle with Ibuprofen | Contact Angle with Naproxen | Contact Angle with Ritonavir | Compound |
| --- | --- | --- | --- | --- | --- |
| 47 ° | 43 ° | 54 ° | 34 ° | 57 ° | CCCCCCCCCCCCOS(=O)(=O)[O-].[Na+] [SLS, Sodium lauryl sulfate] |
| 58 ° | 42 ° | 45 ° | 48 ° | 40 ° | Polyoxyethylene (20) sorbitan monolaurate [TWEEN ™ 20] |
| 70 ° | 55 ° | 68 ° | 52 ° | 51 ° | Polyoxyethylene (20) sorbitan monooleate [TWEEN ™ 80] |
